From patent US12595253B2, “Benzamides of pyrazolylamino-pyrimidinyl derivatives, and compositions and methods thereof” (LYNK PHARMACEUTICALS CO. LTD., priority 2019, dated 2026)
pIC50: −log10 of the molar value. Structures can show the parent of a compound that is named as a salt.

Tests used:
Format in all cases: biochemical
JAK2V617F = target: T1, JAK2V617F (Homo sapiens, UniProt O60674, V617F); assay: JAK2V617F microfluidic kinase assay (Caliper EZ Reader II, FAM labeled peptide substrate); conditions: JAK2V617F 2.5 nM, 1 mM ATP
T1 construct: purchased Carna Biosciences
T1 sequence (O60674 whole entry V617F): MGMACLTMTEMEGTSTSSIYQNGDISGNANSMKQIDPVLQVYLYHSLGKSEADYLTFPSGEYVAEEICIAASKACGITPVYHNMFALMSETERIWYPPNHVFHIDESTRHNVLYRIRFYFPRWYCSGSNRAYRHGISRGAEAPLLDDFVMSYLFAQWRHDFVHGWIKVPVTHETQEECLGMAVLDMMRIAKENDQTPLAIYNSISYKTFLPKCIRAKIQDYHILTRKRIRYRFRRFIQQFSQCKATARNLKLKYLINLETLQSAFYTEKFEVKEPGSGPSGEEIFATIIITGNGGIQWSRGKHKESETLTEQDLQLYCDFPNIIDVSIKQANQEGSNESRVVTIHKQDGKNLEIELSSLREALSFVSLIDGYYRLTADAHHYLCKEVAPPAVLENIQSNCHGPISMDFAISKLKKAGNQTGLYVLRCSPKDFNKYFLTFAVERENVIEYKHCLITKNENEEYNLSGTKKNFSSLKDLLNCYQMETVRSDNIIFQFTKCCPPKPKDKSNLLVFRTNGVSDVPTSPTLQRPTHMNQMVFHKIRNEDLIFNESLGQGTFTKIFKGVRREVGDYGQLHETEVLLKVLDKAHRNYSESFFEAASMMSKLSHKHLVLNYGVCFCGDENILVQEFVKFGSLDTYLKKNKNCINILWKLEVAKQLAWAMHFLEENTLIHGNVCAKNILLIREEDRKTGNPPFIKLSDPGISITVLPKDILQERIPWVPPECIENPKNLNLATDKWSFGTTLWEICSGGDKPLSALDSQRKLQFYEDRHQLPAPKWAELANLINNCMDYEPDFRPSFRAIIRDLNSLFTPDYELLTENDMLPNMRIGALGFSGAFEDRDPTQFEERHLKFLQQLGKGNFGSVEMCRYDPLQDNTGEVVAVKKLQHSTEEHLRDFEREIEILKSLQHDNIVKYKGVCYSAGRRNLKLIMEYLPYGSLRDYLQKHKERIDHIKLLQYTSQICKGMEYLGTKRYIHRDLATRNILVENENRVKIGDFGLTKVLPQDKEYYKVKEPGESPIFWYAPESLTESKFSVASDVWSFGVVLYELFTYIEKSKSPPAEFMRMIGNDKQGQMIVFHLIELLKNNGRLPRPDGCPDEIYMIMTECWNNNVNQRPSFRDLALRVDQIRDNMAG
Experimental: (§1) Compounds were tested against JAK1, JAK2, JAK2V617F and TYK2. Assay Formats: JAK activity was determined in the reaction buffer 50 mM HEPES, 0.01% Brij35, 10 mM MgCl2, 2 mM DTT by a microfluidic assay. The phosphorylation of a FAM labeled peptide substrate was monitored in the Caliper EZ Reader II (Perkin Elmer). The assay condition for each batch of enzyme (Carna Biosciences) was optimized to obtain 10% conversion rate of peptide substrate. The test compounds were dissolved in DMSO to a stock concentration of 10 mM. 3-fold serially diluted compounds with top concentration of 5 μM were pre-incubated with JAK1, JAK2, JAK2V617F or TYK2 at indicated concentrations for 10 min at ambient temperature. The final DMSO concentration of assay mixture was 1%. […] The reaction was stopped by adding 50 mM EDTA. […] The percent inhibition was calculated by the following formula. % Inhibition=(Conversionmax−Conversionsample)/(Conversionmax−Conversionmin)*100 • Conversionmax means the conversion rate in the positive well without addition of compound • Conversionmin means the conversion rate in the well without addition of enzyme • Conversionsample means the conversion rate of test compounds The dose-response (percent inhibition) curve was plotted and IC50 values were determined by GraphPad software.

JAK1 = target: T2, JAK1 (Homo sapiens, UniProt P23458); assay: JAK1 microfluidic kinase assay (Caliper EZ Reader II, FAM labeled peptide substrate); conditions: IC50 JAK1 (5 nM) (1 m MATP), JAK1 5 nM, 1 mM ATP
T2 construct: purchased Carna Biosciences
T2 sequence (P23458 whole entry): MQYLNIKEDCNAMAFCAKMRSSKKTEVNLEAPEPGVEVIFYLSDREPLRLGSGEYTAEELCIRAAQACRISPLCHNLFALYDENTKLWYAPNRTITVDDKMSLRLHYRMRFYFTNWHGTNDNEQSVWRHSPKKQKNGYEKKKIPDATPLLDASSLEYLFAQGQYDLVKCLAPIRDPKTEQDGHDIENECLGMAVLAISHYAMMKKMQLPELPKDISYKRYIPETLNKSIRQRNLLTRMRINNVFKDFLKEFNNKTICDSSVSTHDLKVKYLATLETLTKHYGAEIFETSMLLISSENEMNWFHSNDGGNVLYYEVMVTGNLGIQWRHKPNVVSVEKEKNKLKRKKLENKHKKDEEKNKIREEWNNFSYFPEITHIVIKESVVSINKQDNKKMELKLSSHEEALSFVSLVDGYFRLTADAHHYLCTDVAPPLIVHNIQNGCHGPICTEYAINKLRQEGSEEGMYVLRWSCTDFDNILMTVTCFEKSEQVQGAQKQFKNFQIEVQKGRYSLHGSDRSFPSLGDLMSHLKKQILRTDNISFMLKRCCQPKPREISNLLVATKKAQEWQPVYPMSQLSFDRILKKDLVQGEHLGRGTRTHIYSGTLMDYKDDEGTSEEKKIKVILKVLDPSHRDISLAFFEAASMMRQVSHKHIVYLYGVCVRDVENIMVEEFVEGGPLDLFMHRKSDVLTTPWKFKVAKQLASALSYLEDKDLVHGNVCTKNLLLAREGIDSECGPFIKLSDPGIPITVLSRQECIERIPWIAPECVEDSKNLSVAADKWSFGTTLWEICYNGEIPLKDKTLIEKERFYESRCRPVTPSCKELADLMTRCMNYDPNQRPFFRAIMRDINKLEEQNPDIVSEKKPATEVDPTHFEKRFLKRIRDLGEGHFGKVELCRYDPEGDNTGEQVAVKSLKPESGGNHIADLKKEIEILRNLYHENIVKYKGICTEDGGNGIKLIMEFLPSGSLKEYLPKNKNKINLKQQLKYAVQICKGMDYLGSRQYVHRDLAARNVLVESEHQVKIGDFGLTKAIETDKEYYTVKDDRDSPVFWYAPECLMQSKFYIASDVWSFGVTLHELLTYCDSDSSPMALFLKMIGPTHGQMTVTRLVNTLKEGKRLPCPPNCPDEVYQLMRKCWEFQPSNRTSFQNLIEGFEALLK
Experimental: as §1

JAK2 = target: T3, JAK2 (Homo sapiens, UniProt O60674); assay: JAK2 microfluidic kinase assay (Caliper EZ Reader II, FAM labeled peptide substrate)
T3 construct: purchased Carna Biosciences
T3 sequence (O60674 whole entry): as the sequence (O60674 whole entry V617F) above, with F617V counted along it
Experimental: as §1

[1] = IC50 JAK2 ([…]) (1 mM ATP), 1 mM ATP
[2] = IC50 JAK2 ([…]) (Km ATP), Km ATP

Compound | pIC50 (JAK2V617F) | pIC50 (JAK1) | pIC50 (JAK2; [1]) | pIC50 (JAK2; [2])
CC(C)(C)C(=O)N1CCC(n2cc(Nc3ncc(F)c(-c4ccc(C(=O)NCC#N)cc4)n3)cn2)CC1 [Example 56, N-(cyanomethyl)-4-(5-fluoro-2-((1-(1-pivaloylpiperidin-4-yl)-1H-pyrazol-4-yl)amino)pyrimidin-4-yl)benzamide] | 7.28 | 6.78 | – | –
C[C@@H](C#N)NC(=O)c1ccc(-c2nc(Nc3cnn(C4CCN(C(=O)C(C)(C)C)CC4)c3)ncc2F)cc1 [Example 57, (S)—N-(1-cyanoethyl)-4-(5-fluoro-2-((1-(1-pivaloylpiperidin-4-yl)-1H-pyrazol-4-yl)amino)pyrimidin-4-yl)benzamide] | – | 6.88 | 7.41 | –
Cc1cnc(Nc2cnn(CC(F)F)c2)nc1-c1ccc(C(=O)NCC#N)cc1 [Example 27, N-(Cyanomethyl)-4-(2-((1-(2,2-difluoroethyl)-1H-pyrazol-4-yl)amino)-5-methylpyrimidin-4-yl)benzamide] | 6.98 | – | 7.30 | 8.71
Cc1cnc(Nc2cnn(CC(C)(C)C#N)c2)nc1-c1ccc(C(=O)NCC(F)(F)F)cc1 [Example 81, 4-(2-((1-(2-Cyano-2-methylpropyl)-1H-pyrazol-4-yl)amino)-5-methylpyrimidin-4-yl)-N-(2,2,2-trifluoroethyl)benzamide] | 6.94 | – | – | –
Cc1cnc(Nc2cnn(C3CCN(C(=O)C4CC4)CC3)c2)nc1-c1ccc(C(=O)N[C@@H](C)C#N)nc1 [Example 151, (S)—N-(1-cyanoethyl)-5-(2-((1-(1-(cyclopropanecarbonyl)piperidin-4-yl)-1H-pyrazol-4-yl)amino)-5-methylpyrimidin-4-yl)picolinamide] | – | 7.14 | 7.49 | –
Cc1cnc(Nc2cnn(C)c2)nc1-c1ccc(C(=O)NCCC#N)cc1 [Example 2, N-(2-Cyanoethyl)-4-(5-methyl-2-((1-methyl-1H-pyrazol-4-yl)amino)pyrimidin-4-yl)benzamide] | – | 7.47 | 7.24 | 8.75
N#CCNC(=O)c1ccc(-c2ccnc(Nc3cnn(C4CC4)c3)n2)cc1F [Example 139, N-(Cyanomethyl)-4-(2-((1-cyclopropyl-1H-pyrazol-4-yl)amino)pyrimidin-4-yl)-2-fluorobenzamide] | – | 6.54 | 6.66 | 8.28
Cn1cc(Nc2ncc(Cl)c(-c3ccc(C(=O)NCC4(C#N)CC4)cc3)n2)cn1 [Example 124] | – | 7.66 | 7.33 | –
Cc1cnc(Nc2cnn(C3CC(F)(F)C3)c2)nc1-c1ccc(C(=O)NCC#N)cc1 [Example 104, N-(cyanomethyl)-4-(2-((1-(3,3-difluorocyclobutyl)-1H-pyrazol-4-yl)amino)-5-methylpyrimidin-4-yl)benzamide] | – | 6.55 | 5.94 | –
Cc1cnc(Nc2cnn(C3CCN(C)CC3)c2)nc1-c1ccc(C(=O)N2CC(C#N)C2)cc1 [Example 92, 1-(4-(5-Methyl-2-((1-(1-methylpiperidin-4-yl)-1H-pyrazol-4-yl)amino)pyrimidin-4-yl)benzoyl)azetidine-3-carbonitrile] | – | 6.60 | 6.94 | 8.44
[2H]c1c([2H])c(-c2nc(Nc3cnn(C4CC4)c3)ncc2Cl)c([2H])c([2H])c1C(=O)N[C@@H](C)C#N [Example 162, (S)-4-(5-chloro-2-((1-cyclopropyl-1H-pyrazol-4-yl)amino)pyrimidin-4-yl)-N-(1-cyanoethyl)benzamide-2,3,5,6-d4] | – | 8.34 | 8.95 | –
Cc1cnc(Nc2cnn(C)c2)nc1-c1ccc(C(=O)NCC2(O)CC2)cc1 [Example 32, N-((1-Hydroxycyclopropyl)methyl)-4-(5-methyl-2-((1-methyl-1H-pyrazol-4-yl)amino)pyrimidin-4-yl)benzamide] | – | 7.28 | 6.78 | 8.29
CC1(C)CC(n2cc(Nc3ncc(Cl)c(-c4ccc(C(=O)NCC#N)cc4)n3)cn2)CC(C)(C)O1 [Example 181, 4-(5-Chloro-2-((1-(2,2,6,6-tetramethyltetrahydro-2H-pyran-4-yl)-1H-pyrazol-4-yl)amino)pyrimidin-4-yl)-N-(cyanomethyl)benzamide] | – | 7.94 | > 9.60 | –

More lines, now with the values ahead:

pIC50 (JAK2V617F) | pIC50 (JAK1) | pIC50 (JAK2; [1]) | pIC50 (JAK2; [2]) | Compound
7.47 | 8.25 | – | – | Cc1cnc(Nc2cnn(C3CC3)c2)nc1-c1ccc(C(=O)N[C@H](C#N)C2CC2)cc1 [Example 194, (S)—N-(cyano(cyclopropyl)methyl)-4-(2-((1-cyclopropyl-1H-pyrazol-4-yl)amino)-5-methylpyrimidin-4-yl)benzamide]
– | 8.04 | 9.28 | – | CC[C@@H](C#N)NC(=O)c1ccc(-c2nc(Nc3cnn(C4CCC(O)CC4)c3)ncc2C)cc1 (stereo partly drawn) [Example 205, (S)—N-(1-cyanopropyl)-4-(2-((1-(4-hydroxycyclohexyl)-1H-pyrazol-4-yl)amino)-5-methylpyrimidin-4-yl)benzamide]
7.56 | 8.38 | – | – | Cc1cnc(Nc2cnn(C3CC3)c2)nc1-c1ccc(C(=O)N[C@H](C#N)C(C)C)cc1 [Example 197, (S)—N-(1-Cyano-2-methylpropyl)-4-(2-((1-cyclopropyl-1H-pyrazol-4-yl)amino)-5-methylpyrimidin-4-yl)benzamide]
– | 7.97 | 9.07 | – | Cc1cnc(Nc2cnn(C3CCN(C(=O)C(C)(C)O)CC3)c2)nc1-c1ccc(C(=O)NC(C)C#N)cc1 (stereo in doubt) [Example 52, (S)—N-(1-cyanoethyl)-4-(2-((1-(1-(2-hydroxy-2-methylpropanoyl)piperidin-4-yl)-1H-pyrazol-4-yl)amino)-5-methylpyrimidin-4-yl)benzamide]
– | 7.79 | 7.16 | – | CC[C@@H](C#N)NC(=O)c1ccc(-c2nc(Nc3cnn(C)c3)ncc2Cl)cc1 [Example 220, (S)-4-(5-chloro-2-((1-methyl-1H-pyrazol-4-yl)amino)pyrimidin-4-yl)-N-(1-cyanopropyl)benzamide]
– | 6.52 | 6.69 | 8.12 | Cc1cnc(Nc2cnn(C3CCNCC3)c2)nc1-c1ccc(C(=O)NCC(N)=O)cc1 [Example 82, N-(2-amino-2-oxoethyl)-4-(5-methyl-2-((1-(piperidin-4-yl)-1H-pyrazol-4-yl)amino)pyrimidin-4-yl)benzamide hydrochloride]
9.36 | – | – | – | Cc1cnc(Nc2cnn(C3CCN(C(=O)C4(O)CC4)CC3)c2)nc1-c1ccc(C(=O)N[C@@H](C)C#N)cc1 [Example 79, (S)—N-(1-Cyanoethyl)-4-(2-((1-(1-(1-hydroxycyclopropanecarbonyl)piperidin-4=yl)-1H-pyrazol-4-yl)amino)-5-methylpyrimidin-4-yl)benzamide]
– | 8.24 | 7.86 | – | COC[C@@H](C#N)NC(=O)c1ccc(-c2nc(Nc3cnn(C4CC4)c3)ncc2C)cc1 [Example 187, (R)—N-(1-Cyano-2-methoxyethyl)-4-(2-((1-cyclopropyl-1H-pyrazol-4-yl)amino)-5-methylpyrimidin-4-yl)benzamide]
– | 8.26 | 7.37 | – | CC[C@@H](C#N)NC(=O)c1ccc(-c2nc(Nc3cnn(C)c3)ncc2C)cc1 [Example 219, (S)—N-(1-cyanopropyl)-4-(5-methyl-2-((1-methyl-1H-pyrazol-4-yl)amino)pyrimidin-4-yl)benzamide]
